Experimental data as given in ChEMBL document CHEMBL1153907, “Synthesis and biological evaluation of C-12 triazole and oxadiazole analogs of salvinorin A” (Bioorg Med Chem Lett, 2009).

What was measured:
Mu-type opioid receptor = Mu-type opioid receptor (Rattus norvegicus, UniProt P33535); assay: Displacement of [3H]diprenorphine from rat mu opioid receptor expressed in CHO cells; type: cell-based
[1] = target: Delta-type opioid receptor (Mus musculus, UniProt P32300); assay: Displacement of [3H]diprenorphine from mouse delta opioid receptor expressed in CHO cells; type: cell-based
Delta-type opioid receptor, sequence (P32300 whole entry): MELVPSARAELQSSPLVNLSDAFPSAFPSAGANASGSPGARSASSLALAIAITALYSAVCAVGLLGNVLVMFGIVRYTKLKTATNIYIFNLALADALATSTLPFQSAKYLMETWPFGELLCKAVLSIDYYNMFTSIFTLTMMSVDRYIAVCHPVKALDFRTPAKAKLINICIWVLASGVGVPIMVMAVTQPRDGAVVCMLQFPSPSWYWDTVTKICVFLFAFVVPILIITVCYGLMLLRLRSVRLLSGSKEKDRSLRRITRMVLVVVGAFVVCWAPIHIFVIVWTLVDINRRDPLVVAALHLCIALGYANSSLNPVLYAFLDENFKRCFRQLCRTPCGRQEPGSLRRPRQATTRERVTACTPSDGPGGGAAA

[2] = target: T1, Kappa-type opioid receptor (Homo sapiens, UniProt P41145); assay: Displacement of [3H]diprenorphine from human kappa opioid receptor expressed in CHO cells in presence of EGTA; type: cell-based
T1 sequence (P41145 whole entry): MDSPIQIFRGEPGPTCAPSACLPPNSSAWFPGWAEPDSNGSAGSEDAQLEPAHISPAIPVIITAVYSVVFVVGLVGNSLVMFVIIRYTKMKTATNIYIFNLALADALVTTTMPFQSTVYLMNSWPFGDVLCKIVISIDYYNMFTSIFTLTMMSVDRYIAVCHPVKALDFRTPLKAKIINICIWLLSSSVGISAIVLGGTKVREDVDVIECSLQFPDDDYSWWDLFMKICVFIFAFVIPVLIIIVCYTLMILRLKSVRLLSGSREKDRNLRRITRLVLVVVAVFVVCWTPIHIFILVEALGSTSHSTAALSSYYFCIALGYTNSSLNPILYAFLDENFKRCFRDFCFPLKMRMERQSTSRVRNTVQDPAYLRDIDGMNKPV

[3] = target: T1, Kappa-type opioid receptor; assay: Displacement of [3H]diprenorphine from human kappa opioid receptor expressed in CHO cells; type: cell-based
[4] = target: T1, Kappa-type opioid receptor; assay: Agonist activity at human kappa opioid receptor expressed in CHO cells assessed as increase in […] [35S]GTPgammaS binding; type: functional, cell-based

Mu-type opioid receptor, sequence (P33535 whole entry): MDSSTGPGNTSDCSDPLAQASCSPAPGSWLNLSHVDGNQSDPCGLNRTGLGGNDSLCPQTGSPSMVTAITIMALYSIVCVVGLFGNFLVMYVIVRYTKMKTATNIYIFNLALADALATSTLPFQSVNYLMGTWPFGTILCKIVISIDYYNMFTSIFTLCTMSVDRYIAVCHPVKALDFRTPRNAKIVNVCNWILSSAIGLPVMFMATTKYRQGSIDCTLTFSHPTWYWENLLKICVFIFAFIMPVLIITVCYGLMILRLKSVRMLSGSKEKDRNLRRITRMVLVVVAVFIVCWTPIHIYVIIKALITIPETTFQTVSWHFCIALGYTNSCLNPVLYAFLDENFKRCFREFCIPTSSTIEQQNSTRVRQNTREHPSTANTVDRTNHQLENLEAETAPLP

COC(=O)[C@@H]1C[C@H](OC(C)=O)C(=O)[C@H]2[C@@]1(C)CC[C@H]1C(=O)O[C@H](c3nc(C)no3)C[C@]21C
> 1 µM: Ki (Mu-type opioid receptor) | Ki [1] | Ki [2] | Ki [3] | EC50 [4]

COC(=O)[C@@H]1C[C@H](OC(C)=O)C(=O)[C@H]2[C@@]1(C)CC[C@H]1C(=O)O[C@H](c3cn(Cc4ccccc4)nn3)C[C@]21C
> 1 µM: Ki (Mu-type opioid receptor) | Ki [1] | Ki [3]

COC(=O)[C@@H]1C[C@H](OC(C)=O)C(=O)[C@H]2[C@@]1(C)CC[C@H]1C(=O)O[C@H](c3cn(COC(=O)C(C)(C)C)nn3)C[C@]21C
> 1 µM: Ki (Mu-type opioid receptor) | Ki [1] | Ki [3]

COC(=O)[C@@H]1C[C@H](OC(C)=O)C(=O)[C@H]2[C@@]1(C)CC[C@H]1C(=O)O[C@H](c3cn(C)nn3)C[C@]21C
> 1 µM: Ki (Mu-type opioid receptor) | Ki [1] | Ki [3]

COC(=O)[C@@H]1C[C@H](OC(C)=O)C(=O)[C@@H]2[C@@]3(C)C[C@@H](c4c[nH]nn4)OC(=O)[C@H]3CC[C@]21C
> 1 µM: Ki (Mu-type opioid receptor) | Ki [1] | Ki [3]

COC(=O)[C@@H]1C[C@H](OC(C)=O)C(=O)[C@H]2[C@@]1(C)CC[C@H]1C(=O)O[C@H](c3c[nH]nn3)C[C@]21C
> 1 µM: Ki (Mu-type opioid receptor) | Ki [1] | Ki [3]

CCn1cc([C@@H]2C[C@]3(C)[C@H]4C(=O)[C@@H](OC(C)=O)C[C@@H](C(=O)OC)[C@]4(C)CC[C@H]3C(=O)O2)nn1
> 1 µM: Ki (Mu-type opioid receptor) | Ki [1] | Ki [3]
